Calls of active or inactive are those of the source. The rule behind the calls is not given here.
Target: Forkhead box protein O1 (Homo sapiens) (UniProt Q12778)
Assay: Inhibition of FOXO1a nuclear export in PTEN-deficient cells
Assay type: cell-based

Forkhead box protein O1 (Homo sapiens), sequence (Q12778 whole entry): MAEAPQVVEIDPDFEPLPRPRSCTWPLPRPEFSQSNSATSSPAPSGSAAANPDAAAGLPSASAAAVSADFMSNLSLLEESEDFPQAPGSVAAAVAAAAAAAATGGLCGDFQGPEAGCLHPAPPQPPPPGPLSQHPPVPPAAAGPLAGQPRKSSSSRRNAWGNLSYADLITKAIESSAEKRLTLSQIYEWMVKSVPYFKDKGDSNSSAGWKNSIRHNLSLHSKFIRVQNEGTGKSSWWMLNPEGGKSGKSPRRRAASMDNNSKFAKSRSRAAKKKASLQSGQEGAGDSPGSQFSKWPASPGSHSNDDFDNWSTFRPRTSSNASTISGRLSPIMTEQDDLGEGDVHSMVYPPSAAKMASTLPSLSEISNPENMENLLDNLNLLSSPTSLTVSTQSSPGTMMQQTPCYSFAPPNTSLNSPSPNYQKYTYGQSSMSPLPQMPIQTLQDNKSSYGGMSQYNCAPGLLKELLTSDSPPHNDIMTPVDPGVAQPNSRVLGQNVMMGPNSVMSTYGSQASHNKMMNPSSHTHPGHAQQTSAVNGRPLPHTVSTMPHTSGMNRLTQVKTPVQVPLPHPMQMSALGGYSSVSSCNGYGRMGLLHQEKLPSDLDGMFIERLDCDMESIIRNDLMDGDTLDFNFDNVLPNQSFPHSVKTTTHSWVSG

## CNCCCOc1c(Br)cc(CCNC(=O)/C(Cc2ccc(OC)c(Br)c2)=N/O)cc1Br
  Activity: inactive

From ChEMBL document CHEMBL1158737, “The psammaplysenes, specific inhibitors of FOXO1a nuclear export” (J Nat Prod, 2005)
